Results on 15 molecules are retold here after paper PMC3083246 (Journal of medicinal chemistry, 2011).

The structures appear in SMILES notation. Values joined by “and” are separate entries in the source; they are usually repeats but may differ in a detail not shown here. Equal entries are not always repeated. Where two headings read alike, the source gives them in different places. Where only a bound is given, the exact number is not on record here.

Assay [1] concerns Plasmodium falciparum (3D7). Nature of the assay: Antimalarial activity in cell-based assay. The following applies: 3D7, read-out: IC50, Pf (3D7).
Assay [2] relates to OCI-AML-1 cell lines (acute myeloid leukemia). In words: Anticancer activity in cell-based assay. The following applies: AML1, read-out: IC50, AML-1.
Assay [3] concerns the target T1, Mt ODCase (Methanothermobacter thermautotrophicus, UniProt O26232). Nature of the assay: Reversible, competitive inhibition of Mt ODCase. The class given is biochemical, Methanobacterium thermoautotrophicum.
For assay [4], the target named is T2, human ODCase (Homo sapiens, UniProt P11172). Nature of the assay: Reversible, competitive inhibition of human ODCase. Format: biochemical.
Assay [5] concerns the target T1, Mt ODCase. The following applies: cited from earlier work.
Assay [6] addresses T2, human ODCase. The conditions noted are these: read-out: ODCase Ki, human; competitive inhibition; ref [15],[16],[17]; cited from earlier work.
In assay [7] the target is T1, Mt ODCase. The following applies: cited from earlier work. The source holds these as a separate data set.
In assay [8] the target is T1, Mt ODCase. Nature of the assay: Time-dependent inactivation of Mt ODCase. Format: biochemical, Methanobacterium thermoautotrophicum.
In another assay the target is ODCase (Methanothermobacter thermautotrophicus, UniProt O26232). In words: Mass spectral analysis of enzyme-inhibitor complexes. Details: species or system Methanobacterium thermoautotrophicum. The following applies: enzyme incubated with inhibitor; identical results with human ODCase.
Assay [9] relates to Plasmodium falciparum (3D7). The following applies: read-out: IC50, Pf (3D7); ref [21]; cited from earlier work.
The test system of a further assay is CHO. The conditions noted are these: read-out: IC50, CHO; ref [21]; cited from earlier work.
Assay [10] deals with OCI-AML-1 cell lines (acute myeloid leukemia). The conditions noted are these: read-out: IC50, AML-1; ref [17]; cited from earlier work.
The mark [11] stands for this setting: ODCase Ki, Mt, competitive inhibition, ITC, 55°C.

For the molecule `CCN(CC)CCCC(C)Nc1ccnc2cc(Cl)ccc12` (centres unmarked) [Chloroquine], the IC50 in assay [1] came out at 0.022 ± 0.002 µM. `O=c1cc(I)n([C@@H]2O[C@H](CO)[C@@H](O)[C@H]2F)c(=O)[nH]1` [Compound 27, 2′-Deoxy-2′-fluoro-6-iodo-β-D-uridine]: the IC50 in [2] was greater than 50 µM. On to `NC(=O)c1cc(=O)[nH]c(=O)n1[C@@H]1O[C@H](COP(=O)(O)O)[C@@H](O)[C@H]1F` [Compound 36, 6-Amido-2′-deoxy-2′-fluoro-β-D-uridine-5′-O-monophosphate], for which the Ki on Mt ODCase [3] (Ki, Mt ODCase, text values in mM) was > 3 mM and 3.32 mM; at Mt ODCase [3] (setting [11]) it was 3.32 ± 0.176 mM; on human ODCase [4], greater than 3000 µM. Take `N#Cc1cn([C@@H]2O[C@H](CO)[C@@H](O)[C@H]2F)c(=O)[nH]c1=O` [Compound 31, 5-Cyano-2′-deoxy-2′-fluoro-β-D-uridine]: in assay [2], the IC50 is greater than 50 µM. As for `N#Cc1cc(=O)[nH]c(=O)n1[C@@H]1O[C@H](COP(=O)(O)O)[C@@H](O)[C@H]1O` [Compound 11, 6-CN-UMP], the Ki at Mt ODCase [5] (read-out: ODCase Ki, Mt, competitive inhibition, ref [15],[16],[17]) is 0.0286 ± 0.0021 mM; on human ODCase [6] it was 204 ± 11 µM. As to `[N-]=[N+]=Nc1c(F)c(=O)[nH]c(=O)n1[C@@H]1O[C@H](COP(=O)(O)O)[C@@H](O)[C@H]1O` [Compound 12, 6-azido-5-fluoro-UMP], the “kinact, Mt ODCase” value on Mt ODCase [7] (first-order rate of inactivation, ref [17]) was 41 ± 3 h⁻¹. In addition, the Ki on Mt ODCase [7] (read-out: KI, Mt ODCase, time-dependent inactivation, ref [17]) is 18.2 ± 0.0036 µM. For `N#Cc1cc(=O)[nH]c(=O)n1[C@@H]1O[C@H](COP(=O)(O)O)[C@@H](O)[C@H]1F` [Compound 35, 6-Cyano-2′-deoxy-2′-fluoro-β-D-uridine-5′-O-monophosphate], the Ki is 0.037 ± 0.0025 mM on Mt ODCase [3] (setting [11]) and greater than 2000 µM on human ODCase [4]. Besides, the “inhibition of the catalytic activity of human ODCase” value on human ODCase [4] (up to a concentration of 2 mM) is recorded as “did not inhibit”. Besides, the KI (inactivation) at Mt ODCase [8] (read-out: KI, equilibrium inhibition constant of inactivation, Mt ODCase, time-dependent inactivation) was found to be 30000 ± 6000 µM. In addition, at Mt ODCase [8] (read-out: kinact, Mt ODCase), the inactivation rate constant (kinact) is 0.000556 s⁻¹. Further, the “enzyme-inhibitor complex by mass spectrometry” value at ODCase was “covalent complex”.

Take `O=c1cc(I)n([C@@H]2O[C@H](CO)[C@@H](O)[C@H]2O)c(=O)[nH]1` [Compound 6-I-uridine, 6-iodouridine]: the values for the IC50 (in [9]; with CHO) were 6.2 ± 0.7 µM and 366 ± 45 µM, respectively. With `N#Cc1cn([C@@H]2O[C@H](COP(=O)(O)O)[C@@H](O)[C@H]2F)c(=O)[nH]c1=O` [Compound 37, 5-Cyano-2′-deoxy-2′-fluoro-β-D-uridine-5′-O-monophosphate], the Ki on Mt ODCase [3] (setting [11]) is 0.36 ± 0.023 mM; on human ODCase [4], 759 ± 88 µM. Take `O=c1cc(I)n([C@@H]2O[C@H](COP(=O)(O)O)[C@@H](O)[C@H]2O)c(=O)[nH]1` [Compound 10, 6-iodo-UMP]: the “second-order rate constant relative to 2′-deoxy-2′-fluoro analog 33” value at Mt ODCase [8] (higher than 33) was ~ 5 orders of magnitude. Moreover, at Mt ODCase [7] (irreversible inactivation, ref [16],[22]), the “kobs/[I], M. thermoautotrophicum ODCase” value is 260000 M⁻¹ s⁻¹. For the same molecule, the inactivation rate constant (kinact) at Mt ODCase [7] (text value for the ribofuranosyl analog, ref [16],[22]) is 260000 h⁻¹. Turning to `N#Cc1cc(=O)[nH]c(=O)n1[C@@H]1O[C@H](CO)[C@@H](O)[C@H]1F` [Compound 29, 6-Cyano-2′-deoxy-2′-fluoro-β-D-uridine], the IC50 in [2] is greater than 50 µM. Consider `NC(=O)c1cc(=O)[nH]c(=O)n1[C@@H]1O[C@H](CO)[C@@H](O)[C@H]1F` [Compound 30, 6-Amido-2′-deoxy-2′-fluoro-β-D-uridine], for which, in [2], the IC50 is greater than 50 µM. `[N-]=[N+]=Nc1cc(=O)[nH]c(=O)n1[C@@H]1O[C@H](CO)[C@@H](O)[C@H]1F` [Compound 28, 6-Azido-2′-deoxy-2′-fluoro-β-D-uridine]: the IC50 in [2] was greater than 50 µM. `O=c1cnn([C@@H]2O[C@H](CO)[C@@H](O)[C@H]2O)c(=O)[nH]1` [Compound 5, 6-azauridine]: the IC50 in assay [10] was 6.1 µM. For the molecule `NC(=O)c1cc(=O)[nH]c(=O)n1[C@@H]1O[C@H](COP(=O)(O)O)[C@@H](O)[C@H]1O` [Compound 6-CONH2-UMP, 6-Amido-UMP], the Ki at Mt ODCase [5] (read-out: Ki, Mt ODCase, text value in mM, ref [15],[21]) is 1.32 ± 0.04 mM; on Mt ODCase [5] (read-out: ODCase Ki, Mt, competitive inhibition, ref [15],[21]) it was 0.00132 ± 4e-05 mM.

A word on the IC50: it is the concentration at which inhibition is half-maximal. In general, kinact refers to the rate constant of inactivation at saturating inhibitor.
